Patent US9707233B2, “Heterocyclylamines as PI3K inhibitors” (Incyte Corporation, priority 2011, dated 2017)
Where a name gives a salt, the structure may show the parent alone.

Each molecule was assayed against PI3Kδ (p110δ/p85α) (Homo sapiens (Human), UniProt O00329) (assay: PI3Kδ scintillation proximity assay (Example A3)). Settings: 20 μM ATP, 20 μM PIP2, 4 nM PI3Kδ; read-out: PI3Kδ SPA IC50.
Assay type: biochemical
Procedure: [γ-^33P]ATP (10 mCi/mL) was purchased from Perkin-Elmer (Waltham, Mass.). […] PI3Kδ (p110δ/p85α) was purchased from Millipore (Bedford, Mass.). ATP, MgCl2, DTT, EDTA, MOPS and CHAPS were purchased from Sigma-Aldrich (St. Louis, Mo.). Wheat Germ Agglutinin (WGA) YSi SPA Scintillation Beads was purchased from GE healthcare life sciences (Piscataway, N.J.).
The kinase reaction was conducted in polystyrene 384-well matrix white plate from Thermo Fisher Scientific in a final volume of 25 μL. Inhibitors were first diluted serially in DMSO and added to the plate wells before the addition of other reaction components. The final concentration of DMSO in the assay was 0.5%. The PI3K assays were carried out at room temperature in 20 mM MOPS, pH 6.7, 10 mM MgCl2, 5 mM DTT and CHAPS 0.03%. Reactions were initiated by the addition of ATP, the final reaction mixture consisted of 20 μM PIP2, 20 μM ATP, 0.2 μCi [γ-^33P]ATP, 4 nM PI3Kδ. […] 25 mM EDTA, 400 μM ATP. The final concentration of SPA beads was 1.0 mg/mL. After the plate sealing, plates were shaken overnight at room temperature and centrifuged at 1800 rpm for 10 minutes, the radioactivity of the product was determined by scintillation counting on Topcount (Perkin-Elmer). IC50 determination was performed by fitting the curve of percent control activity versus the log of the inhibitor concentration using the GraphPad Prism 3.0 software.

Sequence of PI3Kδ (p110δ/p85α) (O00329 whole entry): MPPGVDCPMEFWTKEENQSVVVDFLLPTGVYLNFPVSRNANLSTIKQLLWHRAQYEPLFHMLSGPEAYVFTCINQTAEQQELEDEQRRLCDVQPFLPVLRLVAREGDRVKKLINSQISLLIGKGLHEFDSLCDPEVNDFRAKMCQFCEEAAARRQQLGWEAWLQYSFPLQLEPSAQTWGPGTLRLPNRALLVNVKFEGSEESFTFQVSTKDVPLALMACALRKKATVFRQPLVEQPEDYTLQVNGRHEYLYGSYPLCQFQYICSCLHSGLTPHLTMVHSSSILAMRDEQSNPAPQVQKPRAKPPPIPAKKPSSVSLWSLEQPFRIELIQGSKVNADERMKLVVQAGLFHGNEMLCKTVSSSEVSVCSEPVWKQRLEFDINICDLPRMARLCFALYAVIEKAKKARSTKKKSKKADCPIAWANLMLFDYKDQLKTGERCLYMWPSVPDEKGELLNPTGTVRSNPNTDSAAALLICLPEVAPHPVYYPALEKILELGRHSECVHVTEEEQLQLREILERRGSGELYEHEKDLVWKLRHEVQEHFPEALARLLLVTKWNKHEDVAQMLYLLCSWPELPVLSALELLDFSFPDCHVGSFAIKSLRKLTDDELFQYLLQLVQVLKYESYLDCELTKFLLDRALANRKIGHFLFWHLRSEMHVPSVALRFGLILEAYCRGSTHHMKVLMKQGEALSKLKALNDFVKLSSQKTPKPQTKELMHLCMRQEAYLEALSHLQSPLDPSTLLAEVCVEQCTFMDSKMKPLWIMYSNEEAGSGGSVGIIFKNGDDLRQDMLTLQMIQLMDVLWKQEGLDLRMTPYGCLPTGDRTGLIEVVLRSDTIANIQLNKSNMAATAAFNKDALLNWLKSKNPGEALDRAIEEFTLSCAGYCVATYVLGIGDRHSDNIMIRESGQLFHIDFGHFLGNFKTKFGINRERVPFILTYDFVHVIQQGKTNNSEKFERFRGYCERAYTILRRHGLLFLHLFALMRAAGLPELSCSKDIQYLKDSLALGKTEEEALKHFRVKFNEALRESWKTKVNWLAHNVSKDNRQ
Sequence of PI3Kδ (p110δ/p85α) (P27986 whole entry partner): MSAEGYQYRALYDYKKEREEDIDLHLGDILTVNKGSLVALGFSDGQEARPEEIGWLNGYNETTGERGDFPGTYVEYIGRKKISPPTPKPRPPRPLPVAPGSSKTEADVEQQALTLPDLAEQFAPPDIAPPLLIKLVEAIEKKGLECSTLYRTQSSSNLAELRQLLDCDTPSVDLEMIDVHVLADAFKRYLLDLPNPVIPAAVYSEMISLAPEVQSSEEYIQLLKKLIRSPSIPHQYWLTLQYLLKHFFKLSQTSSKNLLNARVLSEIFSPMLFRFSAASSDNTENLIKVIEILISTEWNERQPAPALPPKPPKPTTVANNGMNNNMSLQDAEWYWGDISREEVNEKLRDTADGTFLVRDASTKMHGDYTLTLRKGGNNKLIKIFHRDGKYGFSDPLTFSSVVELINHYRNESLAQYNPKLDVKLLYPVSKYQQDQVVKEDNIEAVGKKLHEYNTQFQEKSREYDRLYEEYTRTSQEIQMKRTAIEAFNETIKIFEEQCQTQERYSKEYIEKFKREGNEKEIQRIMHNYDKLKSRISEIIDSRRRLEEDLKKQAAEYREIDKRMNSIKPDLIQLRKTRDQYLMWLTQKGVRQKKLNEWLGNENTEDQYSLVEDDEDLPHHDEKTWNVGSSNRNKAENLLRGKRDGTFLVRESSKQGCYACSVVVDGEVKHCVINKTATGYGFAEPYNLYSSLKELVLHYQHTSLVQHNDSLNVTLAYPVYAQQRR

IC50, ≤ 10 nM:
COc1c(C(C)n2ccc(=O)c3c(N)ncnc32)cc(Cl)c(C)c1-c1cncc(C#N)c1 (racemic) [Example 27, 5-{3-[1-(4-Amino-5-oxopyrido[2,3-d]pyrimidin-8(5H)-yl)ethyl]-5-chloro-2-methoxy-6-methylphenyl}nicotinonitrile bis(trifluoroacetate)]
COc1c(C(C)n2nc(C)c3c(N)ncnc32)cc(Cl)c(Cl)c1C1CN(CC#N)C1 (single isomer, unassigned) [Example 305, (3-{3-[1-(4-Amino-3-methyl-1H-pyrazolo[3,4-d]pyrimidin-1-yl)ethyl]-5,6-dichloro-2-methoxyphenyl}azetidin-1-yl)acetonitrile]
CCOc1c(C(C)n2nc(-c3cc[nH]n3)c3c(N)ncnc32)cc(Cl)c(C)c1-c1ccc(C(=O)N(C)C)nc1 (racemic) [Example 51, 5-(3-{1-[4-amino-3-(1H-pyrazol-3-yl)-1H-pyrazolo[3,4-d]pyrimidin-1-yl]ethyl}-5-chloro-2-ethoxy-6-methylphenyl)-N,N-dimethylpyridine-2-carboxamide bis(trifluoroacetate)]
CCOc1c(C(C)n2nc(C)c3c(N)ncnc32)cc(Cl)c(C)c1C1CN(CCO)C1 (racemic) [Example 95, 2-(3-{3-[1-(4-Amino-3-methyl-1H-pyrazolo[3,4-d]pyrimidin-1-yl)ethyl]-5-chloro-2-ethoxy-6-methylphenyl}azetidin-1-yl)ethanol bis(trifluoroacetate)]
COc1c(C(C)n2nc(C)c3c(N)ncnc32)cc(Cl)c(C)c1C1CNC(=O)CO1 (single isomer, unassigned) [324 (2nd peak), 6-{3-[1-(4-Amino-3-methyl-1H-pyrazolo[3,4-d]pyrimidin-1-yl)ethyl]-5-chloro-2-methoxy-6-methylphenyl}morpholin-3-one]
COc1c(C(C)n2nc(C)c3c(N)ncnc32)cc(Cl)c(C#N)c1-c1ccc(C(=O)N(C)C)nc1 (single isomer, unassigned) [313 (2nd peak), 5-{3-[1-(4-amino-3-methyl-1H-pyrazolo[3,4-d]pyrimidin-1-yl)ethyl]-5-chloro-6-cyano-2-methoxyphenyl}-N,N-dimethylpyridine-2-carboxamide]
COc1c(C(C)n2nc(C)c3c(N)ncnc32)cc(Cl)c(C#N)c1C1CN(S(=O)(=O)C2CC2)C1 (single isomer, unassigned) [Example 288, 4-[1-(4-Amino-3-methyl-1H-pyrazolo[3,4-d]pyrimidin-1-yl)ethyl]-6-chloro-2-[1-(cyclopropylsulfonyl)azetidin-3-yl]-3-methoxybenzonitrile]
COc1c(C(C)n2nc(C)c3c(N)ncnc32)cc(Cl)c(C#N)c1-c1cncc(S(C)(=O)=O)c1 (single isomer, unassigned) [Example 332, 4-[1-(4-amino-3-methyl-1H-pyrazolo[3,4-d]pyrimidin-1-yl)ethyl]-6-chloro-3-methoxy-2-[5-(methylsulfonyl)pyridin-3-yl]benzonitrile]
CCOc1c(C(C)n2nc(-c3cnn(C)c3)c3c(N)ncnc32)cc(Cl)c(C)c1-c1ccc(C(=O)N(C)C)nc1 (racemic) [Example 49, 5-(3-{1-[4-amino-3-(1-methyl-1H-pyrazol-4-yl)-1H-pyrazolo[3,4-d]pyrimidin-1-yl]ethyl}-5-chloro-2-ethoxy-6-methylphenyl)-N,N-dimethylpyridine-2-carboxamide bis(trifluoroacetate)]
COc1c(C(C)n2nc(C)c3c(N)ncnc32)cc(Cl)c(C)c1-c1ccc(N)nc1 (single isomer, unassigned) [Example 171, 1-(1-(3-(6-aminopyridin-3-yl)-5-chloro-2-methoxy-4-methylphenyl)ethyl)-3-methyl-1H-pyrazolo[3,4-d]pyrimidin-4-amine]
COc1c(C(C)n2nc(C)c3c(N)ncnc32)cc(Cl)c(C)c1-c1cncc(C(=O)N(C)CCO)c1 (single isomer, unassigned) [Example 175, 5-{3-[1-(4-amino-3-methyl-1H-pyrazolo[3,4-d]pyrimidin-1-yl)ethyl]-5-chloro-2-methoxy-6-methylphenyl}-N-(2-hydroxyethyl)-N-methylnicotinamide]
COc1c(C(C)n2nc(C)c3c(N)ncnc32)cc(Cl)c(C)c1-c1cncc(C#N)c1 (single isomer, unassigned) [Example 170, 5-(3-(1-(4-amino-3-methyl-1H-pyrazolo[3,4-d]pyrimidin-1-yl)ethyl)-5-chloro-2-methoxy-6-methylphenyl)nicotinonitrile]
COc1c(C(C)n2nc(C)c3c(N)ncnc32)cc(Cl)c(C#N)c1C1CN(CC(C)C)C1 (single isomer, unassigned) [Example 265, 4-[1-(4-Amino-3-methyl-1H-pyrazolo[3,4-d]pyrimidin-1-yl)ethyl]-6-chloro-2-(1-isobutylazetidin-3-yl)-3-methoxybenzonitrile]
COc1c(C(C)n2nc(-c3cnn(C)c3)c3c(N)ncnc32)cc(Cl)c(C)c1C1CN(CC#N)C1 (racemic) [Example 125, [3-(3-{1-[4-Amino-3-(1-methyl-1H-pyrazol-4-yl)-1H-pyrazolo[3,4-d]pyrimidin-1-yl]ethyl}-5-chloro-2-methoxy-6-methylphenyl)azetidin-1-yl]acetonitrile bis(trifluoroacetate)]
COc1c(C(C)n2nc(C)c3c(N)ncnc32)cc(Cl)c(C#N)c1C1CN(C(C)C)C1 (stereo not drawn) [Example 264, 4-[1-(4-Amino-3-methyl-1H-pyrazolo[3,4-d]pyrimidin-1-yl)ethyl]-6-chloro-2-(1-isopropylazetidin-3-yl)-3-methoxybenzonitrile]
CCOc1c(C(C)n2ccc(=O)c3c(N)ncnc32)cc(Cl)c(C)c1C1CN(C(C)C)C1 (racemic) [Example 35, 4-Amino-8-{1-[5-chloro-2-ethoxy-3-(1-isopropylazetidin-3-yl)-4-methylphenyl]ethyl}pyrido[2,3-d]pyrimidin-5(8H)-one bis(trifluoroacetate)]
COc1c(C(C)n2nc(C)c3c(N)ncnc32)cc(Cl)c(C)c1-c1cnc(N)nc1 (single isomer, unassigned) [Example 169, 1-(1-(3-(2-aminopyrimidin-5-yl)-5-chloro-2-methoxy-4-methylphenyl)ethyl)-3-methyl-1H-pyrazolo[3,4-d]pyrimidin-4-amine]
COc1c(C(C)n2nc(C)c3c(N)ncnc32)cc(Cl)c(C)c1-c1ccc(C(=O)N(C)C)c(F)c1 (single isomer, unassigned) [Example 21, 3′-[1-(4-Amino-3-methyl-1H-pyrazolo[3,4-d]pyrimidin-1-yl)ethyl]-5′-chloro-3-fluoro-2′-methoxy-N,N,6′-trimethylbiphenyl-4-carboxamide trifluoroacetate]
CCOc1c(C(C)n2nc(C)c3c(N)ncnc32)cc(Cl)c(C#N)c1C1CN(C2CCOC2)C1 (single isomer, unassigned) [Example 227, 4-[1-(4-Amino-3-methyl-1H-pyrazolo[3,4-d]pyrimidin-1-yl)ethyl]-6-chloro-3-ethoxy-2-[1-(tetrahydrofuran-3-yl)azetidin-3-yl]benzonitrile]
COc1c(C(C)n2nc(C)c3c(N)ncnc32)cc(Cl)c(C)c1-c1cnn(CC(=O)N(C)C)c1 (single isomer, unassigned) [Example 206, 2-(4-(3-(1-(4-amino-3-methyl-1H-pyrazolo[3,4-d]pyrimidin-1-yl)ethyl)-5-chloro-2-methoxy-6-methylphenyl)-1H-pyrazol-1-yl)-N,N-dimethylacetamide]
CCOc1c(C(C)n2nc(C(F)F)c3c(N)ncnc32)cc(Cl)c(F)c1C1CN(C)C1 (racemic) [Example 151, 1-{1-[5-Chloro-2-ethoxy-4-fluoro-3-(1-methylazetidin-3-yl)phenyl]ethyl}-3-(difluoromethyl)-1H-pyrazolo[3,4-d]pyrimidin-4-amine]
CCOc1c(C(C)n2nc(C)c3c(N)ncnc32)cc(C)c(C#N)c1C1CN(CCO)C1 (single isomer, unassigned) [Example 327, 4-[-1-(4-amino-3-methyl-1H-pyrazolo[3,4-d]pyrimidin-1-yl)ethyl]-3-ethoxy-2-[1-(2-hydroxyethyl)azetidin-3-yl]-6-methylbenzonitrile]

IC50, 50 to 200 nM:
COc1c(C(C)n2nc(C)c3c(N)ncnc32)cc(Cl)c(C)c1-c1cnn(CCO)c1 (single isomer, unassigned) [20 (2nd peak), 2-(4-(3-(1-(4-Amino-3-methyl-1H-pyrazolo[3,4-d]pyrimidin-1-yl)ethyl)-5-chloro-2-methoxy-6-methylphenyl)-1H-pyrazol-1-yl)ethanol]

IC50, 10 to 50 nM:
COc1c(C(C)n2ncc3c(N)ncnc32)cc(Cl)c(C)c1-c1ccnc(C(=O)N(C)C)c1 (racemic) [Example 38, 4-{3-[1-(4-amino-1H-pyrazolo[3,4-d]pyrimidin-1-yl)ethyl]-5-chloro-2-methoxy-6-methylphenyl}-N,N-dimethylpyridine-2-carboxamide]
